The subject of one data set is GABAA receptors. In words: Spontaneous IPSC / miniature GABA current amplitude, whole-cell patch recording from cerebellar molecular layer interneurons. The format is cell-based. The method, then: Bis-CNB-GABA was applied in vitro. Currents were recorded from cerebellar interneurons. […] FIG. 35 (right) illustrates response traces before and after application of bis-CNB-GABA. FIG. 35 (left) illustrates summary of data. FIG. 36 illustrates effects of 1 mM bis-CNB-GABA on spontaneously evoked miniature glutamate and miniature GABA currents in cerebellar interneuron.
The biological properties of our synthetic bis-CNB-GABA were evaluated using whole-cell patch recording from cerebellar molecular layer interneurons.
FIGS. 43A-43E illustrate quantification of unwanted effects of caged GABA. Referring to FIGS. 43A-43E, first, changes in whole-cell holding current under voltage clamp were monitored while caged GABA compounds were applied by bath application or by local perfusion as per Civillico, E. F.; Shoham, S.; O'Connor, D. H.; Sarkisov, D. V.; Wang, S. S.-H. Cold Spring Harb. Protoc. 2012, which is incorporated herein by reference as if fully set forth). FIG. 43A illustrates voltage-clamp recordings from cerebellar interneurons exposed to caged GABA. Referring to this figure, upper trace corresponds to 1 mM bis-CNB-GABA; middle trace corresponds to 0.1 mM mono-O-CNB-GABA; bottom trace corresponds to 1 mM DPNI-GABA. Referring to FIG. 43A, (right) expanded traces illustrating the detailed effects on steady-state holding current and fluctuations in holding current were observed. FIG. 43B illustrates effects of caged GABA on spontaneous IPSCs and excitatory postsynaptic currents (EPSCs). Referring to FIG. 43B, IPSCs and EPSCs were identified and separated based on kinetic criteria. FIG. 43B (left) illustrates box plots of spontaneous postsynaptic current amplitudes in control conditions and in the presence of 1 mM bis-CNB-GABA. Referring to FIG. 43B (left), boxes show interquartile range and whiskers show full range of values. FIG. 43B (right) illustrates individual traces (gray) and average (block) of detected spontaneous IPSCs and EPSCs. FIG. 43C illustrates dependence of spontaneous IPSC amplitude on bis-CNB-GABA concentration. […] FIG. 43D illustrates comparison of effects of mono-O-CNB-GABA (0.1 mM) and bis-CNB-GABA (1.0 mM, except for 0.4 mM for IPSCs) on spontaneous IPSC amplitude, standard deviation of holding current (noise), and holding current (Ihold). FIG. 43E illustrates spontaneous EPSC size was unaffected by bis-CNB-GABA at all concentrations tested. Referring to FIGS. 43A and 43D, under these conditions, mono-O-CNB-GABA (0.1 mM) led to increases of 66±47 pA (mean±SD, n=6) in inward holding current at −60 mV (Ihold). This inward current presumably arises either via indirectly evoked increases in excitation or from direct activation of GABAA receptors (by residual free GABA in the caged compound solution or by mono-O-CNB-GABA, which may itself have partial agonist activity). See Dellal., S. S.; Luo, R.; Otis, T. S. J. Neurophysiol., 2012, 107, 2958-2970, which is incorporated herein by reference as if fully set forth.
Referring to FIG. 43B, the effects of bis-CNB-GABA on spontaneous IPSCs was next measured. […] Referring to FIG. 43B, in contrast, addition of bis-CNB-GABA served to reduce GABA current amplitudes by approximately one-third (FIG. 43B, top; 0.4 to 2.0 mM; ratio of amplitudes during drug/control: 0.68±0.17, n=14). […] This IC50 is, in fact, a lower bound; the material tested was crude product, which may contain minute amounts of mono-CNB-GABA.

The next data set concerns cerebellar interneurons. In words: Whole-cell holding current under voltage clamp in cerebellar interneurons exposed to caged GABA. The class given is cell-based. The text has this: FIGS. 43A-43E illustrate quantification of unwanted effects of caged GABA. Referring to FIGS. 43A-43E, first, changes in whole-cell holding current under voltage clamp were monitored while caged GABA compounds were applied by bath application or by local perfusion as per Civillico, E. F.; Shoham, S.; O'Connor, D. H.; Sarkisov, D. V.; Wang, S. S.-H. Cold Spring Harb. Protoc. 2012, which is incorporated herein by reference as if fully set forth). FIG. 43A illustrates voltage-clamp recordings from cerebellar interneurons exposed to caged GABA. Referring to this figure, upper trace corresponds to 1 mM bis-CNB-GABA; middle trace corresponds to 0.1 mM mono-O-CNB-GABA; bottom trace corresponds to 1 mM DPNI-GABA. Referring to FIG. 43A, (right) expanded traces illustrating the detailed effects on steady-state holding current and fluctuations in holding current were observed. FIG. 43B illustrates effects of caged GABA on spontaneous IPSCs and excitatory postsynaptic currents (EPSCs). Referring to FIG. 43B, IPSCs and EPSCs were identified and separated based on kinetic criteria. FIG. 43B (left) illustrates box plots of spontaneous postsynaptic current amplitudes in control conditions and in the presence of 1 mM bis-CNB-GABA. Referring to FIG. 43B (left), boxes show interquartile range and whiskers show full range of values. FIG. 43B (right) illustrates individual traces (gray) and average (block) of detected spontaneous IPSCs and EPSCs. FIG. 43C illustrates dependence of spontaneous IPSC amplitude on bis-CNB-GABA concentration. […]
Referring to FIG. 43D, in contrast, application of bis-CNB-GABA (raw product, 0.4 to 2.0 mM) evoked no detectable change in the holding current (ratio of holding current drug/control=1.0±0.3, n=14, p=0.7, Mann-Whitney test) or in its standard deviation, which is a measure of steady-state channel noise (from 3.0±0.5 to 3.2±0.8 pA, n=14, p=0.3) measured during periods of no spontaneous currents. […]

A short description of a further data set: physchem. The class given is physicochemical. The conditions noted are these: for rate of spontaneous photoproduct / GABA production: aqueous buffer, 23° C., 12 mM, pH 7.4, fluorescent room lights, first 8 days. The method, then: The hydrolytic stability of bis-CNB-GABA under normal handling conditions was examined. Accordingly, we prepared samples of bis-CNB-GABA and mono-O-CNB-GABA were prepared in aqueous buffer (23° C., 12 mM, pH=7.4), stored the samples under fluorescent room lights, and determined accumulation of deprotected GABA at 1-day intervals.
FIGS. 44A-44B illustrate accumulation of GABA in ambient room light. FIG. 44A illustrates 1H NMR data used to quantify GABA accumulation. Top, bis-CNB-GABA before light exposure. Arrows denote methylene peaks of bis-CNB-GABA. Peaks at ˜3.45 ppm and ˜3.2 ppm in each spectrum correspond to dimethoxyethane, used as an internal standard. Bottom, The teal overlay indicates the post-photolysis spectrum of bis-CNB-GABA after 17 days of exposure to ambient fluorescent light. Arrows denote the two visible peaks corresponding to a combination of GABA and mono-N-CNB-GABA photoproducts. Note the lack of extraneous peaks in the 0-4 ppm range after light exposure. The dominant final photoproduct of bis-CNB-GABA was GABA, as identified using ^1H NMR. FIG. 44A illustrates 1H NMR data used to quantify GABA accumulation. Referring to this figure (top), bis-CNB-GABA before light exposure. Arrows denote methylene peaks of bis-CNB-GABA. Still referring to FIG. 44A, peaks at ˜3.45 ppm and ˜3.2 ppm in each spectrum correspond to dimethoxyethane, used as an internal standard. Still referring to FIG. 44A (bottom), the teal overlay indicates the post-photolysis spectrum of bis-CNB-GABA after 17 days of exposure to ambient fluorescent light. Arrows denote the two visible peaks corresponding to a combination of GABA and mono-N-CNB-GABA photoproducts. The lack of extraneous peaks in the 0-4 ppm range was observed after light exposure. The combined amount of mono-decaging (N-CNB-GABA) and double-decaging (GABA) photoproduct was quantified using the integrated multiplet at 2.15 ppm, with dimethoxyethane (singlet peaks at 3.20 and 3.45 ppm) as a standard.

For data set [1] the following is noted: 1994, cited from earlier work.

Molecules are shown by their SMILES. Several values for one entry are separate records, joined by “and”; a condition that tells them apart may be missing. Equal entries are not always repeated. Where two headings read alike, the source gives them in different places.

As to `NCCCC(=O)OC(C(=O)O)c1ccccc1[N+](=O)[O-]` (centres unmarked) [mono-CNB-GABA], the “effect on rate of spontaneous IPSCs” value in the data set on GABAA receptors (1 mM) is on record as “dramatic decrease”. In addition, in the data set on cerebellar interneurons (0.1 mM, mean±SD, n=6), the “increase in inward holding current at −60 mV (Ihold)” value is reported as 66±47 pA. The “rate of spontaneous photoproduct / GABA production” value in the data set “physchem” came to 1.0±0.2 %/day. Also, in “physchem” (buffer, pH 7.4), the “extrapolated half-life t1/2” value is on record as 138 days. Also, the uncaging speed entry in data set [1] (Gee et al.) is “microsecond range”.
`O=C(CCCNC(C(=O)O)c1ccccc1[N+](=O)[O-])OC(C(=O)O)c1ccccc1[N+](=O)[O-]` (centres unmarked) [bis-CNB-GABA, 2-((4-(Carboxy(2-nitrophenyl)methoxy)-4-oxobutyl)amino)-2-(2-nitrophenyl)acetic acid]: the “concentration generating 33% reduction in response” value in the data set on GABAA receptors is listed as 1 mM. Moreover, the “effects on holding current, IPSCs, or EPSCs” value in the data set with GABAA receptors (1 mM) was “minimal or no effects”. Also, the “decrease in miniature GABA response amplitude / reduction of GABA currents” value in the data set with GABAA receptors (1 mM, cerebellar interneuron) was around 33%. In addition, the “ratio of GABA current (spontaneous IPSC) amplitudes during drug/control” value in the data set with GABAA receptors (0.4 to 2.0 mM, n=14) amounted to 0.68±0.17. Further, in the data set with GABAA receptors (FIG. 43C, read-out: KD of fit, dependence of spontaneous IPSC amplitude on concentration), the Kd was 2500 ± 200 µM. The IC50 is 2000 µM in the data set with GABAA receptors (Table 1, calculated from q=[j]/[j]+IC50, read-out: IC50); at least 2500 µM in the data set with GABAA receptors (Table 2, the data herein, read-out: IC50 in blocking synaptic GABAA currents); at least 2500 µM in the data set on GABAA receptors (read-out: estimated IC50 from concentration-dependence of the reduction of spontaneous IPSC amplitude, crude product, stated to be a lower bound). In the data set on GABAA receptors (Table 1, calculated, q=0.33), the IC33 is given as 1.0. In addition, the “10-90% rise time of IPSCs” value in the data set with GABAA receptors (during bis-CNB-GABA application, control 0.44±0.13 ms) is given as 0.44±0.11 ms. In the data set on GABAA receptors (submillimolar concentrations), the “antagonist activity at submillimolar concentrations” value is given as “virtually no antagonist activity”. In addition, in the data set with GABAA receptors (vs CDNI-GABA), the “fold less antagonistic binding compared to CDNI-GABA” value came out at 4 fold. Also, the “fold less antagonism compared to DPNI-GABA” value in the data set on GABAA receptors (vs DPNI-GABA) is recorded as 4 fold. The “fold lower affinity / reduction of antagonism compared to mono-caged analog” value in the data set with GABAA receptors (vs mono-CNB-GABA) is 70 fold and 100 fold. For the same compound, in the data set on cerebellar interneurons (0.4 to 2.0 mM, control 3.0±0.5 pA, n=14), the “standard deviation of holding current (steady-state channel noise)” value is listed as 3.2±0.8 pA. For the same compound, the “ratio of holding current drug/control” value in the data set on cerebellar interneurons (raw product, 0.4 to 2.0 mM, n=14) was 1.0±0.3. The “rate of spontaneous photoproduct / GABA production” value in the data set “physchem” was determined as 1.5±0.1 %/day. In addition, in “physchem” (buffer, pH 7.4), the half-life (usually the time in which the quantity being followed falls by half) at 12 mM is 98 days. Besides, in “physchem” (during a week in the light), the “accumulation of GABA” value is reported as “less than 1%”. Besides, the “estimated production of N-CNB-GABA” value in the data set “physchem” (during a week in the light) is 10%. The dark reaction time in data set [1] (N-position, Wieboldt et al.) is given as 1.5 ms.

The values above are taken from US9625448B2, “Double caged GABA compounds, bis-CNB-GABA” (The Trustees of Princeton University, priority 2014, dated 2017).
